Experiments:
[1] = refractive index (Na D-line) (dimensionless); xn = mol fraction of the nth substance listed; conditions: 101 kPa, Liquid, Standard Abbe refractometry, x2 = 0
[2] = xn = mol fraction of the nth substance listed; conditions: 101 kPa, Liquid, x2 = 0
[3] = 101 kPa, Liquid
[4] = refractive index (Na D-line) (dimensionless); conditions: 101.33 kPa, Liquid, Standard Abbe refractometry

O [water] + CC(O)CN
Conditions	mass density, [2] [kg/m3]	refractive index, [1]	viscosity, [2] [mPa·s]
293.15 K	–	1.33298	–
298.15 K	–	1.33249	0.882
303.15 K	–	1.33193	0.804
308.15 K	–	1.33136	–
313.15 K	–	1.33067	0.658
318.15 K	–	1.3299	–
323.15 K	988.03	1.32906	0.551
328.15 K	–	1.32818	–
333.15 K	983.19	1.32726	0.47
343.15 K	977.75	–	0.407

CC(O)CN (centres undefined) [1-amino-2-propanol]
Conditions	mass density, [3] [kg/m3]	refractive index, [4]	viscosity, [3] [mPa·s]
293.15 K	–	1.448	–
298.15 K	956.51	1.44609	26.68
303.15 K	952.52	1.44409	20.31
308.15 K	–	1.44211	–
313.15 K	944.42	1.44009	12.51
318.15 K	–	1.43817	–
323.15 K	936.19	1.43631	7.543
328.15 K	–	1.43405	–
333.15 K	927.84	1.43208	5.22
343.15 K	919.37	–	3.77
